Laboratory results taken from patent publication US9732084B2, “Pyrrolobenzodiazepines used to treat proliferative diseases” (priority 2010, dated 2017).

Experiments:
Assay type in all cases: cell-based
786-O [1] = assay: Free drug in vitro cytotoxicity (resazurin); settings: Homo sapiens, 786-0, 786-O cells, 96 hours
Procedure: (§1) Cells as detailed below were collected and plated in 96 well black-sided plates at a density of 10,000 cells/well in 150 μL of medium. Serial dilutions of the test article (50 μL) were added, and incubation was carried out for 92 hours at 37° C. After addition of test compound, cultures were incubated to 96 hours at 37° C. Resazurin (0.25 mM, 50 μL, Sigma, St. Louis, Mo.) in medium was added and incubation was continued for 4 h. The plates were read on a Fusion HT microplate reader (Packard, Meriden, Conn.) using an excitation wavelength of 525 nm and an emission wavelength of 590 nm. Data from all assays were reduced using GraphPad Prism Version 4 for Windows (GraphPad Software, San Diego, Calif.). The IC50 concentrations compared to untreated control cells were determined using a 4 parameter curve fits.

Caki-1 [2] = assay: Free drug in vitro cytotoxicity (resazurin); settings: Homo sapiens, Caki-1 cells, 96 hours
Procedure: as §1

MCF-7 [3] = assay: Free drug in vitro cytotoxicity (resazurin); settings: Homo sapiens, MCF7, MCF-7 cells, 96 hours
Procedure: as §1

TF1a = assay: Free drug in vitro cytotoxicity (resazurin); settings: TF-1a, TF1a cells, 96 hours
Procedure: as §1

786-O [4] = assay: Alternative cell assay (Cell Titer Glo cytotoxicity); settings: Homo sapiens, 786-0, 786-O cells, 48 hours
Procedure: (§2) Cells were plated in 150 μL growth media per well into black-sided clear-bottom 96-well plates (Costar, Corning) and allowed to settle for 1 hour in the biological cabinet before placing in the incubator at 37° C., 5% CO2. The following day, 4× concentration of drug stocks were prepared, and then titrated as 10-fold serial dilutions producing 8-point dose curves and added at 50 μl per well in duplicate. Cells were then incubated for 48 hours at 37° C., 5% CO2. Cytotoxicity was measure by incubating with 100 μL Cell Titer Glo (Promega) solution for 1 hour, and then luminescence was measured on a Fusion HT plate reader (Perkin Elmer). Data was processed with Excel (Microsoft) and GraphPad (Prism) to produce dose response curves and IC50 values were generated and data collected.

BxPC-3 = assay: as above; settings: Homo sapiens, BxPC-3 cells, 48 hours
Procedure: as §2

Caki-1 [5] = assay: as above; settings: Homo sapiens, Caki-1 cells, 48 hours
Procedure: as §2

HEL = assay: as above; settings: Homo sapiens, HEL cells, 48 hours
Procedure: as §2

HL-60 = assay: as above; settings: Homo sapiens, HL-60 cells, 48 hours
Procedure: as §2

MCF-7 [6] = assay: as above; settings: Homo sapiens, MCF7, MCF-7 cells, 48 hours
Procedure: as §2

Row | Structure (SMILES) | IC50 (786-O [1]) [nM] | IC50 (Caki-1 [2]) [nM] | IC50 (MCF-7 [3]) [nM] | IC50 (TF1a) [nM] | IC50 (786-O [4]) [nM] | IC50 (BxPC-3) [nM] | IC50 (Caki-1 [5]) [nM] | IC50 (HEL) [nM] | IC50 (HL-60) [nM] | IC50 (MCF-7 [6]) [nM]
1 | COc1cc2c(cc1OCCCOc1cc3c(cc1OC)C(=O)N1C=C(c4ccc(N)cc4)C[C@H]1C=N3)N=C[C@@H]1CC(C)=CN1C2=O [Compound 11, (S)-2-(4-aminophenyl)-7-methoxy-8-(3-((S)-7-methoxy-2-methyl-5-oxo-5,11a-dihydro-1H-pyrrolo[2,1-c][1,4]benzodiazepine-8-yloxy)propoxy)-1H-pyrrolo[2,1-c][1,4]benzodiazepine-5(11aH)-one] | 0.1 | 0.06 | 0.2 | 0.07 | 0.85 | 3 | 0.4 | 0.06 | 0.1 | 7
2 | CC=CC1=CN2C(=O)c3cc(OC)c(OCCCCCOc4cc5c(cc4OC)C(=O)N4C=C(c6cccc(N)c6)C[C@H]4C=N5)cc3N=C[C@@H]2C1 [Compound 15, (S)-2-(3-aminophenyl)-8-(5-((S)-2-propenyl-7-methoxy-5-oxo-5,11a-dihydro-1H-pyrrolo[2,1-c][1,4]benzodiazepine-8-yloxy)pentyloxy)-7-methoxy-1H-pyrrolo[2,1-c][1,4]benzodiazepine-5(11aH)-one] |  |  | 0.03 |  |  |  |  |  |  | 
3 | COc1cc2c(cc1OCCCOc1cc3c(cc1OC)C(=O)N1C=C(c4cccc(N)c4)C[C@H]1C=N3)N=C[C@@H]1CC(C)=CN1C2=O [Compound 18, (S)-2-(3-aminophenyl)-7-methoxy-8-(3-((S)-7-methoxy-2-methyl-5-oxo-5,11a-dihydro-1H-pyrrolo[2,1-c][1,4]benzodiazepine-8-yloxy)propoxy)-1H-pyrrolo[2,1-c][1,4]benzodiazepine-5(11aH)-one] | 1 | 0.6 | 2 | 0.7 |  |  |  |  |  | 
